Data from ChEMBL document CHEMBL5233250, “Factor XIIIa inhibitors as potential novel drugs for venous thromboembolism” (Eur J Med Chem, 2020).
Numbered stars: 1 amine (or outer) side, 2 acyl side, 3 side chain; on linkers, the order of the positions; unused ones are H or OH. Square brackets hold non-standard residues; d marks the D form. Peptide text beside a SMILES is read from it. * marks the point of attachment. ξ: configuration not given here. X2 = COC(=O)/C=C/CC[C@H](N[*:1])C(=O)[*:2]; Ile(3ξ) = CCC(C)[C@H](N)C(=O)O; X4 = CCOC(=O)c1nc(C(=O)*)cs1; X3 = O=C(c1nc2ccccc2[nH]1)*; Nle = CCCC[C@H](N)C(=O)O; X1 = Cc1nc(C(=O)*)cs1

What was measured:
[1] = target: T1, Coagulation factor XIII A chain (Bos taurus) (UniProt P12260); test: Inhibition of bovine plasma coagulation factor XIIIa assessed as threshold concentration by measuring insoluble fibrin per total fibrin incubated for 30 mins in presence of bovine fibrin by biuret method; assay type: cell-free
T1 sequence (whole entry): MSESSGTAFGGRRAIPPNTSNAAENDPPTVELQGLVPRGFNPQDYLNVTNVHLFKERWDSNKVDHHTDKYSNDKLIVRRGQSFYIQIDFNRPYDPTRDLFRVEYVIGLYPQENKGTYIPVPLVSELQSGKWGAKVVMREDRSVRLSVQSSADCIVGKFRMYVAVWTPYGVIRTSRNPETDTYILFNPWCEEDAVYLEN

[2] = target: T2, Coagulation factor XIII A chain (Homo sapiens, UniProt P00488); test: Inhibition of human coagulation factor XIIIa
T2 sequence (P00488 whole entry): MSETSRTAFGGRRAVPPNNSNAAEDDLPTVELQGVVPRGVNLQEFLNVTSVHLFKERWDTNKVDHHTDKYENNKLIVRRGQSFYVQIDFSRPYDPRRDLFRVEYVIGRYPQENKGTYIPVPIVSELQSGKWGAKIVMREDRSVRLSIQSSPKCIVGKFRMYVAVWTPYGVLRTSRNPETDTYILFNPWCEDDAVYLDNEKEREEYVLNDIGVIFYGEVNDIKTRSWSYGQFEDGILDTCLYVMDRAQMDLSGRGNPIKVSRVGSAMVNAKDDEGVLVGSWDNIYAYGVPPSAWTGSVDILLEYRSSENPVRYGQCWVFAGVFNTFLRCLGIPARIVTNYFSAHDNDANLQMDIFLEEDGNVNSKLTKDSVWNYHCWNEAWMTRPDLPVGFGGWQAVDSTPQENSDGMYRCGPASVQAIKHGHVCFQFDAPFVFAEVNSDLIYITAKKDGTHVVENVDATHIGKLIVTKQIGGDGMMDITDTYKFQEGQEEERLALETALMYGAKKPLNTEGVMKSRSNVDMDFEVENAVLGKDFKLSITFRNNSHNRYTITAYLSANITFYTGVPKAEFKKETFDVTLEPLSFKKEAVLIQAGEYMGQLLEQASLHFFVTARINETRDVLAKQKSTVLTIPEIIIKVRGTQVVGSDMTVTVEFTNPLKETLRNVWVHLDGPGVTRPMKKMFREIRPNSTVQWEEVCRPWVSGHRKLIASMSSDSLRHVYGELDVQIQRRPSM

[3] = target: T3, Protein-glutamine gamma-glutamyltransferase (Homo sapiens, UniProt P21980); test: Inhibition of tissue transglutaminase (unknown origin); assay type: tissue-based
T3 sequence (P21980 whole entry): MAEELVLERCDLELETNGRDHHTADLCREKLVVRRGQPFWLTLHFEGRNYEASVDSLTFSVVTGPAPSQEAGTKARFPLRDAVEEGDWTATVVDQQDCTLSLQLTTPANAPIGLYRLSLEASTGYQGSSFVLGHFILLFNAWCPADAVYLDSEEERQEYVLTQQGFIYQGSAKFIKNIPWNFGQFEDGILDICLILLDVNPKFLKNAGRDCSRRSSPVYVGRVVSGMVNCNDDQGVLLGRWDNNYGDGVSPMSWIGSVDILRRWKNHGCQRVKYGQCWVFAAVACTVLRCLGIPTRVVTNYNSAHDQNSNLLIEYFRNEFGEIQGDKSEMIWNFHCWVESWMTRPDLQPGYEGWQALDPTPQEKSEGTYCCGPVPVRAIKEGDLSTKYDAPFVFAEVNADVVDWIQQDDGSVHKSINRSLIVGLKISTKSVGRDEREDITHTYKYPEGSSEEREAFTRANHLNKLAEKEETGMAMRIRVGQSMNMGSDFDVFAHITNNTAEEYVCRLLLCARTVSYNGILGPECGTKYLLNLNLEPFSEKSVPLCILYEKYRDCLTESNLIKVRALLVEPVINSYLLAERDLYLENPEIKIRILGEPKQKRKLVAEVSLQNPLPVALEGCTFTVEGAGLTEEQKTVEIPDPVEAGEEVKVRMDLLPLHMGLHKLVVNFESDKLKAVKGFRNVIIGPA

[4] = Ratio of rate constant for human plasma coagulation factor XIIIa to rate constant for Glutathione (unknown origin)
[5] = target: T4, Coagulation factor XIII A chain (Homo sapiens) (UniProt P00488); test: Binding affinity to human plasma coagulation factor XIIIa assessed as rate constant in presence of GSH by DTNB based UV-fluorescence assay; assay type: cell-free
T4 sequence (whole entry): T2 sequence (P00488 whole entry)

[6] = Total clearance in New Zealand White rabbit at iv dosed upto 8 hrs by HPLC method; assay type: ADME, organism-based, Oryctolagus cuniculus; settings: in vivo
[7] = Plasma concentration in New Zealand White rabbit at iv dosed upto 8 hrs by HPLC method; assay type: ADME, organism-based, Oryctolagus cuniculus
[8] = Half life in New Zealand White rabbit at iv dosed upto 8 hrs by HPLC method; assay type: ADME, organism-based, Oryctolagus cuniculus; settings: in vivo
[9] = target: T2, Coagulation factor XIII A chain; test: Inhibition of human plasma coagulation factor XIIIa; assay type: cell-free
[10] = target: T2, Coagulation factor XIII A chain; test: Inhibition of human plasma coagulation factor XIIIa by fluorescence spectrophotometeric assay; assay type: cell-free
[11] = target: T2, Coagulation factor XIII A chain; test: Inhibition of human coagulation factor XIIIa assessed as inhibition of factor 13a mediated crosslinking of fibronectin-collagen incubated for 2 hrs by SDS-PAGE analysis
[12] = target: T2, Coagulation factor XIII A chain; test: Inhibition of human recombinant coagulation factor XIIIa
[13] = organism: Homo sapiens; test: Selectivity index, ratio of IC50 for inhibition of human coagulation factor XIIIa to IC50 for inhibition of human alpha-thrombin
[14] = target: T4, Coagulation factor XIII A chain (Homo sapiens); test: Inhibition of human coagulation factor XIIIa assessed as maximal inhibition of factor 13a mediated fibrin polymerization at 5 to 500 uM incubated for 24 hrs by SDS-PAGE analysis; settings: dose 5-500 µM
[15] = Selectivity index, ratio of IC50 for inhibition of human coagulation factor XIIIa to IC50 for inhibition of papain (unknown origin)
[16] = organism: Homo sapiens; test: Selectivity index, ratio of IC50 for inhibition of human coagulation factor XIIIa to IC50 for inhibition of human Factor Xa
[17] = target: T4, Coagulation factor XIII A chain (Homo sapiens); test: Inhibition of human coagulation factor XIIIa assessed as maximal efficacy upto 20 nM
[18] = target: T4, Coagulation factor XIII A chain (Homo sapiens); test: Inhibition of human coagulation factor XIIIa assessed as enzyme residual activity at 100 uM in presence of polybrene by Spectrofluorometric assay
[19] = test system: Canis familiaris; test: Antithrombotic activity in Mongrel dog model of electrically-induced coronary artery thrombosis assessed as reduction in residual thrombus mass at 0.1 mg/kg,iv pre-administered for 15 mins followed by electric impulse stimulation and t-PA and measured after 90 mins; assay type: functional, Canis lupus familiaris; settings: time 105 min, 1.75 h
[20] = test system: Canis familiaris; test: Antithrombotic activity in Mongrel dog model of electrically-induced coronary artery thrombosis assessed as time to occlusion at 0.1 mg/kg,iv pre-administered for 15 mins followed by electric impulse stimulation and t-PA and measured after 90 mins; assay type: functional, Canis lupus familiaris; settings: time 105 min, 1.75 h
[21] = test system: Canis familiaris; test: Antithrombotic activity in Mongrel dog model of electrically-induced coronary artery thrombosis assessed as re-occlusion rate at 0.1 mg/kg,iv pre-administered for 15 mins followed by electric impulse stimulation and t-PA and measured after 90 mins; assay type: functional, Canis lupus familiaris; settings: time 105 min, 1.75 h
[22] = test system: Canis familiaris; test: Antithrombotic activity in Mongrel dog model of electrically-induced coronary artery thrombosis assessed as time to reperfusion at 0.1 mg/kg,iv pre-administered for 15 mins followed by electric impulse stimulation and t-PA and measured after 90 mins; assay type: functional, Canis lupus familiaris; settings: time 105 min, 1.75 h
[23] = Inhibition of transglutaminase in guinea pig liver assessed as inhibition constant using Z-Gln-Gly as substrate by Michaelis-Menten analysis; assay type: tissue-based, Cavia porcellus

Cc1ccc(S(=O)(=O)NCCCCCCCCCCC(=O)CCl)cc1
Activity [1]: 50 µg/mL

CC(=O)NCCc1ccc(O)cc1
IC50 [2]: 200 nM

O=C(CCl)CCCCCNS(=O)(=O)c1ccc(Cl)cc1
Activity [1]: 0.2 µg/mL

C[C@@H]1CCC/C=C\C(=O)Cc2cc(O)cc(O)c2C(=O)O1
IC50 [3]: 3100 nM

NC(=O)CI
Ratio [4]: 5 10^3No_unit
K [5]: 0.8 10^4/M/s

O=[N+]([O-])c1ccccc1S(=O)(=O)NCCCCCCNc1nsc2nccn12
clearance [6]: > 63.3 mL/min/kg
concentration at 8 h [7]: 80 µM
half-life [8]: 7.8 min

CC(=O)CSc1n(C)c(C)c(C)[n+]1C
Ratio [4]: 3.9 10^4No_unit
K [5]: 6.3 10^4/M/s

CC(=O)CSc1n(C)c(-c2ccccc2)c(-c2ccccc2)[n+]1C
IC50 [9]: 350 nM

Cc1ccc(C(=O)NCCCCCC(=O)CCl)cc1
Activity [1]: 0.8 µg/mL

O=C(O)CCCCCCCc1cc1=O
IC50 [10]: 610 nM

NCCCNCCCCNCCCN [SPERMINE]
IC50 [11]: 100000 nM

CCC(C)[C@H](NC(=O)[C@H](CC(C)C)NC(=O)[C@H](CC/C=C/C(=O)OC)NC(=O)c1nc2ccccc2[nH]1)C(=O)N[C@@H](CC(C)C)C(=O)N1CCC[C@H]1C(=O)N[C@@H](Cc1c[nH]c2ccccc12)C(=O)N1CCC[C@H]1C(N)=O (stereo partly drawn) (X3-[X2]L[Ile(3ξ)]LPWP-NH2)
IC50 [12]: 102 nM

CCCC[C@H](NC(=O)[C@H](CC/C=C/C(=O)OC)NC(=O)c1csc(C)n1)C(=O)N[C@H](C(=O)N[C@@H](CC(C)C)C(=O)N1CCC[C@H]1C(=O)N[C@@H](Cc1c[nH]c2ccccc12)C(N)=O)C(C)CC (stereo partly drawn) (X1-[X2][Nle][Ile(3ξ)]LPW-NH2)
IC50 [12]: 139 nM

Cc1ccc(S(=O)(=O)NCCCCCC(=O)CCl)cc1
Activity [1]: 0.05 µg/mL

CC(=O)CSc1n(C)cc[n+]1C
Ratio [4]: 1.9 10^6No_unit
K [5]: 0.35 10^4/M/s

NCCCCNCCCN [SPERMIDINE]
IC50 [11]: 100000 nM

O=c1c(OS(=O)(=O)O)c(-c2ccc(OS(=O)(=O)O)c(OS(=O)(=O)O)c2)oc2cc(OS(=O)(=O)O)cc(OCCOc3cc(-c4oc5cc(OS(=O)(=O)O)cc(OCCOc6cc(OS(=O)(=O)O)cc7oc(-c8ccc(OS(=O)(=O)O)c(OS(=O)(=O)O)c8)c(OS(=O)(=O)O)c(=O)c67)c5c(=O)c4OS(=O)(=O)O)ccc3OS(=O)(=O)O)c12
Ratio IC50 [13]: 26
Efficacy [14]: 100%
Ratio IC50 [15]: 27
Ratio IC50 [16]: 9
Efficacy [17]: 98%
Activity [18]: 85%

Cc1ccc(S(=O)(=O)NCCCCOC(=O)CCl)cc1
Activity [1]: 40 µg/mL

Cc1ccc(S(=O)(=O)NCCCCNC(=O)CCl)cc1
Activity [1]: 15 µg/mL

CC(=O)CSc1n[n+]2c(C)csc2s1
Activity [19]: 1.7 mg
Time [20]: 44.4 min
Activity [21]: 75%
Time [22]: 16.4 min

NCCCCCNC(=S)Nc1ccccc1
Ki [23]: 49000 nM

O=C(CCCCCCCc1cc1=O)NCCc1ccccc1
IC50 [10]: 26 nM

O=C(O)CCCCCCCCCCc1cc1=O
IC50 [10]: 310 nM

Cc1ccc(S(=O)(=O)N(C)CCCCCC(=O)CCl)cc1
Activity [1]: 0.1 µg/mL

CCOC(=O)c1nc(C(=O)N[C@@H](CC/C=C/C(=O)OC)C(=O)N[C@@H](CC(C)C)C(=O)N[C@H](C(=O)N[C@@H](CC(C)C)C(=O)N2CCC[C@H]2C(=O)N[C@@H](Cc2c[nH]c3ccccc23)C(=O)N2CCC[C@H]2C(N)=O)C(C)CC)cs1 (stereo partly drawn) (X4-[X2]L[Ile(3ξ)]LPWP-NH2)
IC50 [12]: 29 nM

O=C(O)CCCCCc1cc1=O
IC50 [10]: 1900 nM

Cc1c(C)[n+](C)c(SCC(=O)CSc2nnnn2C)n1C
Ratio [4]: 4.1 10^6No_unit
K [5]: 4.9 10^4/M/s

O=C1C(OS(=O)(=O)O)=C(c2ccc(OS(=O)(=O)O)c(OCCCOc3cc(OS(=O)(=O)O)cc4oc(-c5ccc(OS(=O)(=O)O)c(OS(=O)(=O)O)c5)c(OS(=O)(=O)O)c(=O)c34)c2)OC2C=C(OS(=O)(=O)O)C=C(OCCCOc3cc(OS(=O)(=O)O)cc4oc(-c5ccc(OS(=O)(=O)O)c(OS(=O)(=O)O)c5)c(OS(=O)(=O)O)c(=O)c34)C12 (stereo not drawn)
IC50 [2]: 118000 nM
Efficacy [17]: 93%
